BindingDB's records for doi:10.1016/j.bmcl.2007.07.021 (Boehringer Ingelheim Pharmaceuticals, 2007)

Molecular target: T1, Mineralocorticoid receptor (Homo sapiens, UniProt P08235)
T1 sequence (P08235 whole entry): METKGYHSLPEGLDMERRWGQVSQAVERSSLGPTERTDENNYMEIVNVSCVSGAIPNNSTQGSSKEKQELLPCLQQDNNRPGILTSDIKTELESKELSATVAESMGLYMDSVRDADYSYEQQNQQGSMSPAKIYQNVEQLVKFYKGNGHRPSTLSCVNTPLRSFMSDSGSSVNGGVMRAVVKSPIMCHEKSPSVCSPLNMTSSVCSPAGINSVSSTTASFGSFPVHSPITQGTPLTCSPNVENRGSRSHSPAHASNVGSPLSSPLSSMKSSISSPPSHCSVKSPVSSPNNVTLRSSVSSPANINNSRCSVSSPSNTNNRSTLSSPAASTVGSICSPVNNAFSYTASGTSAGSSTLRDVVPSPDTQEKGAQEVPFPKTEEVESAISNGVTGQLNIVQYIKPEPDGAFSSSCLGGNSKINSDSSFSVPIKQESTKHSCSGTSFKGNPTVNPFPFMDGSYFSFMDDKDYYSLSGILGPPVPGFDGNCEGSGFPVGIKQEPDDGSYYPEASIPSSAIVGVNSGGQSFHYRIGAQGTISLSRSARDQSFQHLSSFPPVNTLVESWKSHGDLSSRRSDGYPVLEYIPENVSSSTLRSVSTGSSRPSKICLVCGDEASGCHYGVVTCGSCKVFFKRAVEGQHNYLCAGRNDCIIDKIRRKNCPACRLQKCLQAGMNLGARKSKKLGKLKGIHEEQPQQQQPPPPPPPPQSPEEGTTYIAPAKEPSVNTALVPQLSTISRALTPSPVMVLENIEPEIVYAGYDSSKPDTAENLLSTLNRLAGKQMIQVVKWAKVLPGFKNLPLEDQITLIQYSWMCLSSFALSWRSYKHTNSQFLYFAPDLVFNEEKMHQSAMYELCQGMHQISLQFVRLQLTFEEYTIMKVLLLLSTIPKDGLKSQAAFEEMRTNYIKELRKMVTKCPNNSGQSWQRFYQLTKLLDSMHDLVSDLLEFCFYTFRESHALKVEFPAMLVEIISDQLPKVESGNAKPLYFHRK
Assay: Fluorescence Polarization Competitive Binding Assay.
From the text: IC50 values shown are means of a single experiment done in duplicate 11-point concentration-effect curves.

**Q.** How did the IC50 turn out when `C=CCOC(C)C1=CC(C)(C)Nc2ccc(-c3ccccc3OC)cc21` (stereo unspecified) [6-(2-methoxyphenyl)-2,2-dimethyl-4-[1-(prop-2-en-1-yloxy)ethyl]-1,2-dihydroquinoline] was run?
**A.** The IC50 was 970 nM.
